# Measured values reported in patent US11118211B2, “Methods for the design of mechanism-based sirtuin activating compounds” (CHAKRABARTI ADVANCED TECHNOLOGY LLC, priority 2015, dated 2021).
# Where two headings read alike, the source gives them in different places.
# Legend:
# recombinant human SIRT3 = molecular target: T1, recombinant human SIRT3 (Homo sapiens, UniProt Q9NTG7); assay: High-throughput fluorimetric initial rate / endpoint assay of SIRT3 deacetylation with fluorolabeled p53 peptide; format: biochemical
# T1 construct: purchased Enzo Life Sciences AK 557
# T1 sequence (Q9NTG7 1-399): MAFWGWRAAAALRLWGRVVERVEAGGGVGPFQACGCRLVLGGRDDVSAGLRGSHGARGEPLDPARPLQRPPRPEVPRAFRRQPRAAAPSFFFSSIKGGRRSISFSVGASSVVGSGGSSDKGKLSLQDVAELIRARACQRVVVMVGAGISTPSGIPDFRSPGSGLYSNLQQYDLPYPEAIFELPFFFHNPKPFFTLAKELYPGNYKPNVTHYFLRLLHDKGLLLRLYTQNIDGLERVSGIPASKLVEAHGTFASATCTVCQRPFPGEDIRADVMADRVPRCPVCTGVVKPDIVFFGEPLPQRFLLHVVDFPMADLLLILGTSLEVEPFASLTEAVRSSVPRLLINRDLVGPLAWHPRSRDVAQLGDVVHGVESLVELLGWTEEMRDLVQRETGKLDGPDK
# Method: The specified concentration of the test compound was chosen to be 50 uM. Initial deacylation rates at DHP-1's were measured at varying [NAD+] and [NAM] according to the following methods.
# The steady state parameters (Km and kcat) and catalytic efficiency (kcat/Km) of deacetylase activity of recombinant human SIRT3 were determined using a fluorimetric assay. The deacetylation activities were measured by using the SIRT3 Fluorimetic Drug Discovery Kit (AK 557, Enzo Life Sciences). This assay system allows detection of a fluorescent signal upon deacetylation of an acetylated substrate peptide, comprising amino acids 317-320 of human p53 (Gln-Pro-Lys-LysAc) for SIRT3, when treated with developer. The intensity of fluorescence was measured on a fluorometric microplate reader (Fluoroskan AscentH FL, Thermo Lab Systems) with excitation set at 355 nm and emission detection set at 460 nm. The initial rate of the NAD^+-dependent deacetylation activity of SIRT3 enzyme was measured at different concentrations of NAD^+. The reactions were carried out at 37° C. in a 50 μl reaction volume containing 50 mM Tris/Cl (pH=8), 137 mM NaCl, and 250 uM fluorolabeled peptide substrate. Reactions carried out in the presence of DHP-1 included 5% DMSO. The raw data were fitted to the Michaelis-Menten equation and defined inhibition models by using GraphPad Prism (GraphPad Software, Inc, CA) to obtain the kinetic constants. […] In assays of allosteric modulators, artifacts reported in the presence of the fluorescent label were later shown to occur due to the hydrophobic fluorophore participating in the modulator's allosteric activation mechanism.
# This assay was used to measure the potency of modulation of SIRT3 by DHP-1 in a high-throughput endpoint format. All reagents are diluted on ice in the following reaction buffer: 50 mM Tris/Cl, pH 8.0, 137 mM NaCl, 2.7 mM KCl, 1 mM MgCl2, and 1 mg/mL BSA. Thus for each reaction well, 5U of SIRT3 enzyme is added to 500 μM NAD^+, 250 μM fluorolabeled peptide substrate, and DHP-1 at a given concentration (0-100 uM) in a total reaction volume of 50 μL. After an hour incubation at 37° C., the reaction is stopped upon addition of 1× Developer for a final reaction volume of 100 μL. The reaction is incubated at 37° C. for an additional 15 min and then read on the plate reader. Positive controls contained only enzyme, substrate, NAD^+, and DMSO while background controls contained substrate, NAD^+, and DMSO only.
# [1] = Thermodynamic solubility measurement by HPLC in HDAC buffer / DMSO; format: physicochemical; conditions: for thermodynamic solubility (in words): solubility protocol of b230; for solubility at 48 h: 24.5 °C, thermodynamic from solid, ambient (24-25° C.)
# Method: DHP-1 in up to 20% DMSO/HDAC was insoluble. In brief, HPLC (Agilent 1100 series) was used to perform the test. Calibration curves were established using concentration range covering the estimated solubility's. The samples were then analyzed by a well-calibrated HPLC method. The linearity was measured by R-values at least >0.99. The estimated detection limit was around 0.002 mg/mL (2 μg/mL) based on acceptable N/S ratio. Over saturated samples were prepared by dosing excess compounds into the solvent mixtures of interest. The samples were equilibrated at ambient (24-25° C.) for 48 hours and then analyzed by the same HPLC method.
# Human Sirt3 protein [2] = molecular target: T2, Human Sirt3 protein (Homo sapiens, UniProt Q9NTG7); assay: Label-free HPLC endpoint assay of Sirt3 deacetylation activity (DHP-1, DHP-2; FdL/p53 peptide); format: biochemical; conditions: for % product formation / % Sirt3 Activity: 50 uM DHP-1 in 5% DMSO; for % Sirt3 Activity: control = 100.0
# T2 construct: hexa-histidine (N); host or cells: E. coli Arctic Express (DE3)
# T2 sequence (Q9NTG7 102-399): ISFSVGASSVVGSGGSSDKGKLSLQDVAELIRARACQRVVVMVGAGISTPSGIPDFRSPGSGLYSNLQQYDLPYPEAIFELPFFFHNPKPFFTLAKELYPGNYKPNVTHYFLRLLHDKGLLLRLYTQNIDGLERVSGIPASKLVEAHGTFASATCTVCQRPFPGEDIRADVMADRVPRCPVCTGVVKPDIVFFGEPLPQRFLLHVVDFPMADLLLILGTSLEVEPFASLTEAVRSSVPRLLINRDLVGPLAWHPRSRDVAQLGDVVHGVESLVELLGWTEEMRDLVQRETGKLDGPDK
# Method: Reactions for DHP-1 used a similar protocol, but were carried out at a single concentration of modulator and varying concentrations of NAD+ and fluorolabeled peptide at 37° C. in a 50 μl reaction volume containing 50 mM Tris/Cl (pH=8), 137 mM NaCl, and 5% DMSO. [DHP] was 50 uM.
# Human Sirt3 protein [3] = molecular target: T2, Human Sirt3 protein; assay: Binding analysis by microscale thermophoresis (MST); conditions: 5% DMSO, 25° C.
# Method: Human Sirt3 protein was labeled with Alexa647 fluorophore by NHS ester chemistry in 20 mM HEPES, 200 mM NaCl, 0.5 mM TCEP at pH 7.5. A 2:1 molar excess of reactive dye was used over protein, in order to preferentially label one lysine within the protein. Free dye was removed using a size exclusion column and the labeled protein (Sirt3 NT647) was buffer exchanged into 50 mM Tris-HCl pH 8.0, 137 mM NaCl, 2.7 mM KCl, 1 mM MgCl2, 5% DMSO, 0.05% Pluronic F-127. A final concentration of 2 nM Sirt3 NT647 was titrated with varying concentrations of the modulator and thermophoresis was measured (excitation wavelength 650 nm, emission wavelength 670 nm, LED-power 15%, laser-power 80%) using a Monolith NT. 115 Pico (NanoTemper Technologies) at 25° C. in the absence and presence of various concentrations of NAD+, acetylated and de-acetylated peptide (K122-MnSOD peptide). Dissociation constants were determined with GraFit7 (Erithacus Software) by nonlinear fitting using a 1:1 binding model. Each experiment was repeated at least twice.
# Sir2Af2 = molecular target: T3, Sir2Af2 (Archaeoglobus fulgidus, UniProt O30124); conditions: cited from earlier work
# T3 sequence (O30124 1-253): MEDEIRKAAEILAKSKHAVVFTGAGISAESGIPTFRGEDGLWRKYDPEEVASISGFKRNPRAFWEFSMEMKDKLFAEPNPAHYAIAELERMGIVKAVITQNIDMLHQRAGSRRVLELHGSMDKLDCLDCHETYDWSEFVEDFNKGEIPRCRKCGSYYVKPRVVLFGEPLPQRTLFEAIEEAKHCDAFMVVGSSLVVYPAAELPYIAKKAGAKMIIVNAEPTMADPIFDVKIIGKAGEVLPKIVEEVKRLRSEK
# [4] = 100 uM NAD + 100 uM FdL Peptide
# [5] = 200 uM NAD + 100 uM FdL Peptide
# [6] = 500 uM NAD + 250 uM FdL Peptide
# [7] = 2% DMSO in HDAC buffer, aqueous buffer, 2% DMSO/HDAC
# [8] = 5% DMSO in HDAC buffer, aqueous with cosolvent or surfactant or cyclodextrin, 5% DMSO/HDAC
structure (smiles),measurement,setting,value
"CCOC(=O)C1=CN(Cc2ccccc2)C=C(C(=O)OCC)C1c1ccccc1 [DHP-1, N-Benzyl-3,5-dicarbethoxy-4-phenyl-1,4-dihydropyridine]","Alpha (apparent, best-fit value)","recombinant human SIRT3; 50 uM DHP-1, global fit of mixed inhibition model, varying NAD+ and NAM",1.933
same,"Vmax (apparent, best-fit value)","recombinant human SIRT3; 50 uM DHP-1, global fit of mixed inhibition model, varying NAD+ and NAM, 250 uM fluorolabeled peptide",0.2118
same,net effect on catalytic turnover (vapp versus v),recombinant human SIRT3; fluorimetric assays,vapp>v
same,thermodynamic solubility (in words),[1],thermodynamically insoluble
same,Solubility,[1]; up to 20% DMSO/HDAC,insoluble
same,SIRT3 activation in label-free assay,"Human Sirt3 protein [2]; 50 uM DHP-1, conditions of Table 2, threshold vapp/v=1.10",does not activate SIRT3
same,% product formation,Human Sirt3 protein [2]; [4],5.776%
same,% Sirt3 Activity,Human Sirt3 protein [2]; [4],96.7%
same,% product formation,Human Sirt3 protein [2]; [5],9.463%
same,% Sirt3 Activity,Human Sirt3 protein [2]; [5],92.3%
same,% product formation,Human Sirt3 protein [2]; [6],2.111%
same,% Sirt3 Activity,Human Sirt3 protein [2]; [6],99.5%
"O=C(O)C1=CN(Cc2ccccc2)C=C(C(=O)O)C1c1ccccc1 [DHP-2, N-Benzyl-3,5-dicarboxy-4-phenyl-1,4-dihydropyridine]",solubility at 48 h,[1]; [7],1740 µg/mL
same,solubility at 48 h,[1]; [8],2140 µg/mL
same,solubility at 48 h,"[1]; 10% DMSO in HDAC buffer, aqueous with cosolvent or surfactant or cyclodextrin, 10% DMSO/HDAC",2200 µg/mL
same,solubility at 48 h,"[1]; aqueous buffer, 100% HDAC buffer",2300 µg/mL
same,thermodynamic solubility (in words),[1],thermodynamically soluble
same,SIRT3 activation in label-free assay,"Human Sirt3 protein [2]; 3 μM NAD+ and 250 μM peptide substrate, 0-400 μM DHP-2, threshold vapp/v=1.10",does not activate SIRT3
same,"rate enhancement versus predicted for Km,NAD+ reduction (x = 0.7, 0.8, 0.9)","Human Sirt3 protein [2]; any concentration tested, label-free assay (FIG. 8 vs FIG. 10)",does not induce a rate enhancement exceeding those predicted
"C=CCc1ccc(O)c(-c2ccc(O)c(CC=C)c2)c1 [Honokiol, 5,3′-Diallyl-2,4′-dihydroxybiphenyl, reference compound]",solubility at 48 h,[1]; [7],41 µg/mL
same,solubility at 48 h,[1]; [8],120 µg/mL
same,Kd,"Human Sirt3 protein [3]; read-out: Kd, binding to SIRT3 apoenzyme",1.01 ± 0.129 µM
same,Kd,"Human Sirt3 protein [3]; read-out: Kd, binding to the enzyme:NAD+ complex",1.67 ± 0.125 µM
"NC(=O)c1cccnc1 [NAM, nicotinamide]","ΔGbind,NAM",Sir2Af2,-4.1 kcal/mol
"NC(=O)c1ccncc1 [isonicotinamide, reference compound]",outcome of hit identification,"recombinant human SIRT3; same sirtuin enzyme and peptide substrate, competitive inhibitor of base exchange",screened out
